Reference: patent US20250151727A1, “(S)-ABSCISIC ACID FOR REDUCING FRUIT DROP” (Valent BioSciences LLC, priority 2023, published 2025)

How the values were obtained:
Type in all cases: in vivo
[1] = test system: 'Nadorcott' mandarin trees; test: Fruit drop, 'Nadorcott' mandarin, Piketberg, all plots with ProGibb (Example 4); conditions: for # Fruit per Tree / % Change in # Fruit per Tree: Excelero SL; for % Change in # Fruit per Tree: vs untreated control
Method: Excelero™ SL was applied to mature ‘Nadorcott’ mandarin trees in a commercial orchard near Piketberg (33°04′46.3″S 18°50′04.7″E) in the Western Cape Province of South Africa. The experiment consisted of 5 trees per plot. S-ABA was applied at 50 and 100 ppm in the form of Excelero™ SL and compared to an untreated control at 2.4 liters per tree. All plots received application of ProGibb® at 80% and 100% petal fall. All treatments were applied with Villa 51® at a rate of 6 milliliters per 100 liters of water. Treatments were applied 42 and 56 days after 100% petal drop (“DAP”) on 23 November and […], respectively. See Results in Table 4, below.

'Leanri' mandarin trees = test: Fruit drop, 'Leanri' mandarin, Ashton, all plots with Falgro and girdling (Example 5); conditions: for # Fruit per Tree / % Change in # Fruit per Tree: 37 ppm, 21 days after 100% petal drop; for % Change in # Fruit per Tree: vs untreated control
Method: Excelero™ SL was applied to mature ‘Leanri’ mandarin trees in a commercial orchard near Ashton (33°50′57″S, 20°02′15″E) in the Western Cape Province of South Africa. The experiment consisted of 5 trees per plot. S-ABA was applied at 37 ppm in the form of ProTone™ SG and Excelero™ SL and compared to an untreated control at 2.4 liters per tree. All plots received application of Falgro® at 70% and 90% petal fall and a girdling action. All treatments were applied with Villa 51® at a rate of 6 milliliters per 100 liters of water. Treatments were applied 21 days after 100% petal drop on 8 Nov. 2023. See Results in Table 5, below.

'Orri' mandarin trees = test: Fruit drop, 'Orri' mandarin, Mpumalanga (Example 6); conditions: for # Fruit per Tree / % Change in # Fruit per Tree: Excelero SL; for % Change in # Fruit per Tree: vs untreated control
Excerpt: Excelero™ SL was applied to mature ‘Orri’ mandarin trees in a commercial orchard near Mpumalanga, South Africa. The experiment consisted of a completely randomized design. S-ABA was applied at 20, 40 and 80 ppm in the form of Excelero™ SL and compared to an untreated control. All treatments were applied with Villa 51® at a rate of 6 milliliters per 100 liters of water. Treatments were applied 14, 21 and 28 days after 100% petal drop (“DAP”). See Results in Table 6, below.

[2] = test system: 'Nadorcott' mandarin trees; test: Fruit drop after foliar spray, 'Nadorcott' mandarin, Piketberg (Example 3); conditions: for # Fruit per Tree / % Change in # Fruit per Tree: 28 days after 100% petal drop; for % Change in # Fruit per Tree: vs untreated control
Method: ProTone™ SG or Excelero™ SL was applied to mature ‘Nadorcott’ mandarin trees in a commercial orchard near Piketberg (33°04′46.3″S 18°50′04.7″E) in the Western Cape Province of South Africa. The experiment consisted of 5 trees per plot. S-ABA in the form of ProTone™ SG was applied as a foliar spray at 18.5, 37 and 75 ppm and at 37 ppm in the form of Excelero™ SL and compared to an untreated control at 2.4 liters per tree. All treatments were applied with Villa 51® at a rate of 6 milliliters per 100 liters of water. Treatments were applied 28 days after 100% petal drop on 8 Nov. 2022. See Results in Table 3, below.

[3] = test system: '2PH seedless' lemon trees; test: Fruit drop, '2PH seedless' lemon, Mpumalanga (Example 8); conditions: for # Fruit per Tree / % Change in # Fruit per Tree: Excelero SL; for % Change in # Fruit per Tree: vs untreated control
Excerpt: Excelero™ SL was applied to mature ‘2PH seedless’ lemon trees in a commercial orchard near Mpumalanga, South Africa. The experiment consisted of a completely randomized design. S-ABA was applied at 20, 40 and 80 ppm in the form of Excelero™ SL and compared to an untreated control. All treatments were applied with Villa 51® at a rate of 6 milliliters per 100 liters of water. Treatments were applied 14, 21 and 28 days after 100% petal drop (“DAP”). See Results in Table 8, below.

[4] = 20, 40 and 80 ppm at each of 14, 21 and 28 days after 100% petal drop

Substance: (S)-abscisic acid [S-ABA]
- effect on fruit drop as compared to untreated control ([1]; 50 and 100 ppm at both 42 and 56 days after 100% petal drop): reduced fruit drop
- # Fruit per Tree ([1]; 50 ppm @ 42 DAP): 412
- % Change in # Fruit per Tree ([1]; 50 ppm @ 42 DAP): 35%
- # Fruit per Tree ([1]; 50 ppm @ 56 DAP): 316
- % Change in # Fruit per Tree ([1]; 50 ppm @ 56 DAP): 3%
- # Fruit per Tree ([1]; 100 ppm @ 42 DAP): 387
- % Change in # Fruit per Tree ([1]; 100 ppm @ 42 DAP): 26%
- # Fruit per Tree ([1]; 100 ppm @ 56 DAP): 322
- % Change in # Fruit per Tree ([1]; 100 ppm @ 56 DAP): 5%
- effect on fruit drop as compared to untreated control ('Leanri' mandarin trees; 37 ppm at 21 days after 100% petal drop): reduced fruit drop
- # Fruit per Tree ('Leanri' mandarin trees; Excelero SL): 430
- % Change in # Fruit per Tree ('Leanri' mandarin trees; Excelero SL): 28%
- # Fruit per Tree ('Leanri' mandarin trees; ProTone SG): 398
- % Change in # Fruit per Tree ('Leanri' mandarin trees; ProTone SG): 19%
- effect on fruit drop as compared to untreated control ('Orri' mandarin trees; [4]): reduced fruit drop
- # Fruit per Tree ('Orri' mandarin trees; 20 ppm @ 14 DAP): 222
- % Change in # Fruit per Tree ('Orri' mandarin trees; 20 ppm @ 14 DAP): 17%
- # Fruit per Tree ('Orri' mandarin trees; 20 ppm @ 21 DAP): 257
- % Change in # Fruit per Tree ('Orri' mandarin trees; 20 ppm @ 21 DAP): 36%
- # Fruit per Tree ('Orri' mandarin trees; 20 ppm @ 28 DAP): 196
- % Change in # Fruit per Tree ('Orri' mandarin trees; 20 ppm @ 28 DAP): 4%
- # Fruit per Tree ('Orri' mandarin trees; 40 ppm @ 14 DAP): 222
- % Change in # Fruit per Tree ('Orri' mandarin trees; 40 ppm @ 14 DAP): 17%
- # Fruit per Tree ('Orri' mandarin trees; 40 ppm @ 21 DAP): 234
- % Change in # Fruit per Tree ('Orri' mandarin trees; 40 ppm @ 21 DAP): 24%
- # Fruit per Tree ('Orri' mandarin trees; 40 ppm @ 28 DAP): 250
- % Change in # Fruit per Tree ('Orri' mandarin trees; 40 ppm @ 28 DAP): 32%
- # Fruit per Tree ('Orri' mandarin trees; 80 ppm @ 14 DAP): 255
- % Change in # Fruit per Tree ('Orri' mandarin trees; 80 ppm @ 14 DAP): 35%
- # Fruit per Tree ('Orri' mandarin trees; 80 ppm @ 21 DAP): 213
- % Change in # Fruit per Tree ('Orri' mandarin trees; 80 ppm @ 21 DAP): 13%
- # Fruit per Tree ('Orri' mandarin trees; 80 ppm @ 28 DAP): 207
- % Change in # Fruit per Tree ('Orri' mandarin trees; 80 ppm @ 28 DAP): 10%
- # Fruit per Tree ([2]; 18.5 ppm, ProTone SG): 793
- % Change in # Fruit per Tree ([2]; 18.5 ppm, ProTone SG): 3%
- effect on fruit drop as compared to untreated control ([2]; 37 and 75 ppm): reduced fruit drop
- # Fruit per Tree ([2]; 37 ppm, Excelero SL): 1010
- % Change in # Fruit per Tree ([2]; 37 ppm, Excelero SL): 32%
- # Fruit per Tree ([2]; 37 ppm, ProTone SG): 841
- % Change in # Fruit per Tree ([2]; 37 ppm, ProTone SG): 10%
- # Fruit per Tree ([2]; 75 ppm, ProTone SG): 909
- % Change in # Fruit per Tree ([2]; 75 ppm, ProTone SG): 18%
- effect on fruit drop as compared to untreated control [3, 4]: reduced fruit drop
- # Fruit per Tree ([3]; 20 ppm @ 14 DAP): 107
- % Change in # Fruit per Tree ([3]; 20 ppm @ 14 DAP): 23%
- # Fruit per Tree ([3]; 20 ppm @ 21 DAP): 105
- % Change in # Fruit per Tree ([3]; 20 ppm @ 21 DAP): 21%
- # Fruit per Tree ([3]; 20 ppm @ 28 DAP): 112
- % Change in # Fruit per Tree ([3]; 20 ppm @ 28 DAP): 29%
- # Fruit per Tree ([3]; 40 ppm @ 14 DAP): 114
- % Change in # Fruit per Tree ([3]; 40 ppm @ 14 DAP): 31%
- # Fruit per Tree ([3]; 40 ppm @ 21 DAP): 121
- % Change in # Fruit per Tree ([3]; 40 ppm @ 21 DAP): 39%
- # Fruit per Tree ([3]; 40 ppm @ 28 DAP): 119
- % Change in # Fruit per Tree ([3]; 40 ppm @ 28 DAP): 37%
- # Fruit per Tree ([3]; 80 ppm @ 14 DAP): 109
- % Change in # Fruit per Tree ([3]; 80 ppm @ 14 DAP): 25%
- # Fruit per Tree ([3]; 80 ppm @ 21 DAP): 117
- % Change in # Fruit per Tree ([3]; 80 ppm @ 21 DAP): 34%
- # Fruit per Tree ([3]; 80 ppm @ 28 DAP): 125
- % Change in # Fruit per Tree ([3]; 80 ppm @ 28 DAP): 44%
